The test deals with Sodium channel protein type 9 subunit alpha (Homo sapiens, UniProt Q15858). The test can be described thus: Radioligand Binding Assay (EP) (In vitro Assay). The conditions noted are these: pH 7.4; 25 °C.
Sequence of Sodium channel protein type 9 subunit alpha (Q15858 whole entry): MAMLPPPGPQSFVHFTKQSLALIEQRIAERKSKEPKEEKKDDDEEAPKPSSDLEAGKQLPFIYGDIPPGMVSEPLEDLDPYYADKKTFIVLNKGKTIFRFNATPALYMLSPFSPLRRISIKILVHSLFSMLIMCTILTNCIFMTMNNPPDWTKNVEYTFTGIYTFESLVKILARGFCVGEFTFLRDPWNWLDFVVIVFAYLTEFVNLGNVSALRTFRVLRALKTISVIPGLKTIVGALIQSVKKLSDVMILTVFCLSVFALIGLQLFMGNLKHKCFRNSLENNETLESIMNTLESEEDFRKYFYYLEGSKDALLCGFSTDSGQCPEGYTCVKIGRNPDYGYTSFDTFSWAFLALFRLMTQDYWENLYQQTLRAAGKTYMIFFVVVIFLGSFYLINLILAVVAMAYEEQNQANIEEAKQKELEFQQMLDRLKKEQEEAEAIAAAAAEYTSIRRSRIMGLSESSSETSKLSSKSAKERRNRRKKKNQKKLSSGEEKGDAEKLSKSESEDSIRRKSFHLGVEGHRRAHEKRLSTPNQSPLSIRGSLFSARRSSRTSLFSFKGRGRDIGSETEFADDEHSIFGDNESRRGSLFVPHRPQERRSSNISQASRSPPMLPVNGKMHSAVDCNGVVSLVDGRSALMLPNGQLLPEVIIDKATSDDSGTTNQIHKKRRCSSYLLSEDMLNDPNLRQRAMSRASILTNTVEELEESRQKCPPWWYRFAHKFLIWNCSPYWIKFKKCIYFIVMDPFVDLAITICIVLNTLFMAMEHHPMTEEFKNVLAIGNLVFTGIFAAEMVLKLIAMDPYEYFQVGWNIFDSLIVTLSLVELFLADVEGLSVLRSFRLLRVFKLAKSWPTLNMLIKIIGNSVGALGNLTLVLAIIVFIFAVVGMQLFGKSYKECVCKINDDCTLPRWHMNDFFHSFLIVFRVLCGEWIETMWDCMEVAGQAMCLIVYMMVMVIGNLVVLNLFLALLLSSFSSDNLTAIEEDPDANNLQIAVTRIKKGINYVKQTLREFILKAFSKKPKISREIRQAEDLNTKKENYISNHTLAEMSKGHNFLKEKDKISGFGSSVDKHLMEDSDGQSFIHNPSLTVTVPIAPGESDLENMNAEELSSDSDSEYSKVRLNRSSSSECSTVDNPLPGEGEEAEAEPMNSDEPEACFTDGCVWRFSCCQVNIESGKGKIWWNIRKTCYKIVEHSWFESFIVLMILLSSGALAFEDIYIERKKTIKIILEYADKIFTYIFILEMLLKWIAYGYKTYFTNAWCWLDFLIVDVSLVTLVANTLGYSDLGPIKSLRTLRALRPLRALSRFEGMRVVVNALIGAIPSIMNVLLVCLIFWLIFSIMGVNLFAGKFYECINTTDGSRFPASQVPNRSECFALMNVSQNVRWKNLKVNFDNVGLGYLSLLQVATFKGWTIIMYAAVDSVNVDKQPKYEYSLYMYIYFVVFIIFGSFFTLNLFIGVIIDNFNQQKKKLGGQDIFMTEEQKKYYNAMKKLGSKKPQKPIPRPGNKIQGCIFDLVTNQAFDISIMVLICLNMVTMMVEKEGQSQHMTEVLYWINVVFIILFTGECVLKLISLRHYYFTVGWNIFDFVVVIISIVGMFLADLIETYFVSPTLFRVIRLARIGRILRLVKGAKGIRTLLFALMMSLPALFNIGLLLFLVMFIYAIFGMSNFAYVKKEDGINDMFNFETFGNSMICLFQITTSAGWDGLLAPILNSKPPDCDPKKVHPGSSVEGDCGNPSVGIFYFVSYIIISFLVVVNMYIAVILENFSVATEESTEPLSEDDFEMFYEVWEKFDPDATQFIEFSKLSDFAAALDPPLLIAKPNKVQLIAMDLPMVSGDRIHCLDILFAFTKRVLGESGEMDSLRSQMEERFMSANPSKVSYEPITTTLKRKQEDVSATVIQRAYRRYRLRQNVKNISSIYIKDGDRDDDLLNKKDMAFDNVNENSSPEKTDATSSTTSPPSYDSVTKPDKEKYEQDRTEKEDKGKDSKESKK
Method: Binding of this radioligand was preformed in 5 mL borosilicate glass test tubes at room temperature. […] Non-specific binding was determined in the presence of 1 μM unlabelled compound. […] In 360 μL, membranes were incubated with 100 pM [3H]compound and increasing concentrations of Test Compound. Non-specific binding was defined in the presence of 1 μM unlabelled compound. Reactions were transferred and filtered through 96-well glass fiber/C filter plates presoaked with 0.5% polyethylene imine. […] Bound radioactivity was determined by liquid scintillation counting.
`CS(=O)(=O)NC(=O)c1cc(C2CC2)c(OCC2CCN(S(=O)(=O)c3cc(F)c(F)c(F)c3)CC2)cc1F` [US9546164, 380] had an IC50 of 40.9 nM. For `CC1(COc2cc(F)c(C(=O)NS(C)(=O)=O)cc2C2CC2)CCN(Cc2cc(C(F)(F)F)ccc2C(F)(F)F)CC1` [US9546164, 107], the IC50 is 2.1 nM.

`CS(=O)(=O)NC(=O)c1cc(C2CC2)c(OCC2(F)CN(C(c3ccccc3)c3ccccc3)C2)cc1F` [US9546164, 67] yielded an IC50 of 7.9 nM. This IC50 lies about 3.8-fold higher than the previous one. The same measure for `CC(C)(C)OC(=O)N1CCC(COc2cc(F)c(C(=O)NS(C)(=O)=O)cc2Cl)CC1` [US9546164, 78]: 490 nM; for `O=C(NS(=O)(=O)C1CC1)c1cc(C2CC2)c(OCC2CCN(S(=O)(=O)c3ccc4ccccc4c3)CC2)cc1F` [US9546164, 389]: 8.8 nM; for `O=C(NS(=O)(=O)N1CCC1)c1cc(C2CC2)c(OCC2CC3CCC(C2)N3C(c2ccccc2)c2ccccc2)cc1F` (stereo not drawn) [US9546164, 49]: 4.3 nM. As for `CC(c1ccc(OC(F)(F)F)cc1)N1CC(COc2cc(F)c(C(=O)NS(C)(=O)=O)cc2C2CC2)C1` (stereo not drawn) [US9546164, 157], the IC50 is 35.1 nM. To `CS(=O)(=O)NC(=O)c1cc(C2CC2)c(OCC2(F)CCN(Cc3cc(Cl)ccc3C(F)(F)F)CC2)cc1F` [US9546164, 348] belongs 4.5 nM.

The record behind these values is BindingDB's records for patent US9546164 (Genentech Inc, 2017).
